Laboratory results taken from US20230125429A1 (priority 2017, published 2023).
Entries after “also recorded” stand apart in the source; their conditions may differ.

Key:
LO2 = test: Growth inhibitory effect, one hour exposure (IncuCyte Zoom); format: cell-based, human; conditions: LO2, immortalized hepatocytes
[1] = test system: phosphorylated histone H3 (p-H3); test: Histone H3 phosphorylation in HepG2 cells (Western blot); format: cell-based, human; conditions: 1 µM for 1 hour, 2 hours after mimosine release; monitored to hour 12
Method: HepG2 cells were synchronized by mimosine for 28 hours and released into regular culture medium for 2 hours. […] After the treatment, cells were incubated in the regular culture condition and samples were harvested every hour from 2 to 12 hours (shown on top of the top panel). Western blots were performed to determine the relative levels of phosphorylated histone H3 (p-H3), CDK1 and beta actin (ATCB) (as controls).
After treatments, cells were harvested and protein extracts were prepared by lysis in RIPA buffer (Solarbio). Western blots were performed using specific antibodies and SuperSignal® West Pico Chemiluminescent Substrate (Pierce). Antibodies were purchased from commercial venders as described below: polyclonal rabbit anti-PAR2 antibodies (ABGENT), polyclonal rabbit anti-Beta-Actin antibodies (Cell Signaling Technology), anti-ERK (Cell Signaling Technology), anti-phosphorylated ERK (Cell Signaling Technology), anti-phosphorylated histone H3 (Abchem), anti-CDK1 (Abcam).
After the Triptonide treatments, cells were returned to regular culture condition and samples were harvested at various time points for Western blot analysis.

ERK phosphorylation = ERK phosphorylation in HepG2 cells (Western blot); format: cell-based, human; conditions: serum-starved HepG2; trypsin 50 nM, Triptolide 1 µM, Triptonide 1 µM; 0-40 minutes
[2] = test system: HepG2-GFP orthotopic xenograft tumor
wild-type keratinocytes = test: Growth of wild-type primary keratinocytes, continuous exposure; format: cell-based, mouse
Method: For the neonatal mouse keratinocyte culture, the dorsal skins of neonatal wild type or Par2 knockout mice were harvested from wild type or Par2 knockout mice, respectively. The skins were incubated overnight at 4° C. in a 0.25% solution of trypsin (Life Technologies, USA) in phosphate-buffered saline (PBS) without calcium and magnesium. The epidermis was then separated from the adjoining dermis, and the dispersed epidermal cells were collected in suspension Eagle’s minimal essential medium (SMEM) (Life Technologies, USA) supplemented with glutamine and 8% calcium free fetal calf serum (FCS) (Life Technologies, USA). The cells were plated onto individual wells of 48 well plates (Corning, USA), which were pre-coated with collagen (Life Technologies, USA), at a density of 70,000 cells/well. The cell cultures were kept for 12 hours at 34° C. in a humidified incubator containing 8% CO2. Low calcium (0.05 mM) S-MEM, containing 8% FCS was then added to initiate the culture. The culture medium was changed every 2 days.
(§1) For primary hepatocytes, the seeded cells were monitored for up to 48 hours either without any treatment (as a control) or with various types of treatments. For primary keratinocytes, cells in 48-well plates were monitored either without any treatment or with various types of treatment for up to 96 hours. For HepG2, cells 96-well plates were monitored either without any treatment or with various types of treatments for up to 48 hours. The IncuCyte Zoom was set to take a set of images at fixed locations (4 per well for 96-well plates and 16 per well for 48-well plates and 12-well plates) every three hours.
To address this question, we took a genetic approach.

LM9 = test: Growth inhibitory effect, one hour exposure (IncuCyte Zoom); format: cell-based, human; conditions: LM9, Hepatocellular carcinoma
Method: (§2) Cancer cell lines and immortalized human cell lines were cultured in 1640 tissue culture medium (Corning, USA) with 10% fetal bovine serum in a standard tissue culture condition of 37° C. and 5% CO2.
as §1
(§3) The one-hour exposure is intended to simulate the transient high concentrations within the liver as the results of either the first pass effects of some orally administered drugs, or of locally delivered drugs, anticipating that such a short term exposure is nevertheless sufficient to affect certain cell surface receptors without causing any significant off-target effects due to intracellular absorption. Such a strategy would also reduce false hits due to reversible cell cycle arrests.
(§4) To address this possibility, we investigated whether other cell lines, including other HCC cell lines, cell lines from other type of cancers, as well as non-cancer immortalized/transformed cell lines, were also sensitive to Triptonide. Specifically, a total of 51 human cancer cell lines, representing 10 types of human cancers (6 non-small cell lung cancer cell lines, 5 colon cancer cell lines, 5 central nerve system cancer cell lines, 8 Melanomas cell lines, 4 ovarian cancer cell lines, 4 renal cancer cell lines, 2 prostate cancer cell lines, 3 breast cancer cell lines, 7 hepatocellular carcinoma cell lines, and 4 gastric cancer cell lines) were analyzed.

HCC-2998 = test: as above; format: cell-based, human; conditions: HCC-2998, Colon
Method: as §2, §1, §3, §4

UACC-62 = test: as above; format: cell-based, human; conditions: UACC-62, Melanoma
Method: as §2, §1, §3, §4

SK-OV-3 = test: as above; format: cell-based, human; conditions: SK-OV-3, Ovarian
Method: as §2, §1, §3, §4

HCT-116 = test: as above; format: cell-based, human; conditions: HCT-116, Colon
Method: as §2, §1, §3, §4

MCP7 = test: as above; format: cell-based, human; conditions: MCP7, Breast
Method: as §2, §1, §3, §4

NCI-H460 = test: as above; format: cell-based, human; conditions: NCI-H460, Non-Small Cell Lung
Method: as §2, §1, §3, §4

SF-268 = test: as above; format: cell-based, human; conditions: SF-268, CNS
Method: as §2, §1, §3, §4

SGC7901 = test: as above; format: cell-based, human; conditions: SGC7901, Gastric cancer
Method: as §2, §1, §3, §4

DU-145 = test: as above; format: cell-based, human; conditions: DU-145, Prostate
Method: as §2, §1, §3, §4

SF-295 = test: as above; format: cell-based, human; conditions: SF-295, CNS
Method: as §2, §1, §3, §4

[3] = test system: HepG2-based orthotopic xenograft tumor; set-up: species or system nude mice; conditions: mouse, in vivo
HepG2 = format: cell-based, human
GES-1 = test: Growth inhibitory effect, one hour exposure (IncuCyte Zoom); format: cell-based, human; conditions: GES-1, immortalized gastric epithelium
[4] = test system: Par2 knockout keratinocytes; test: Growth of Par2 knockout primary keratinocytes, one hour treatment; format: cell-based, mouse; conditions: one hour treatment

CC(C)[C@]12O[C@H]1[C@@H]1O[C@@]13[C@@]1(C)CCC4=C(COC4=O)[C@@H]1C[C@@H]1O[C@@]13C2=O [Triptonide]
IC50 (LO2): 0.642 µM
level of histone H3 phosphorylation [1]: remained very low
levels of phosphorylated ERK (ERK phosphorylation): only an acute transient increase
average body weight of the animals ([2]; 25 mg/kg by gavage every other day): did not have any significant impact
tumor specific signals during follow-up ([2]; remaining mice, another four months without further treatments): No tumor specific signals were ever detected again
autopsy for tumors ([2]; six of the treated mice): did not reveal any signs of tumors
effect of continuous exposure on PMHs (PMHs): complete death
toxic effect on PMHs (PMHs): no significant toxic effect
growth inhibitory effect, wild-type versus Par2 knockout (wild-type keratinocytes; continuous exposure): more potent growth inhibitory effect on the Par2 wild-type PMHs than their Par2 knockout counterparts
toxicity to Par2-expressing primary mouse keratinocytes (wild-type keratinocytes; long-term exposure, as low as 50 nM): quite toxic
IC50 (LM9): 4.24 µM
IC50 (HCC-2998): 2.77 µM
IC50 (UACC-62): 9.35 µM
IC50 (SK-OV-3): 3.89 µM
IC50 (HCT-116): 2.57 µM
IC50 (MCP7): 0.592 µM
IC50 (NCI-H460): 8.44 µM
IC50 (SF-268): 11.8 µM
IC50 (SGC7901): 12 µM
IC50 (DU-145): 2.38 µM
IC50 (SF-295): 14.6 µM
intensities of the tumor specific signal / tumor mass [3]: very effective in reducing the tumor mass; also recorded: reduced the tumor specific signal to the background level
effect of continuous exposure on HepG2 (HepG2): complete death
IC50 (GES-1): 16.7 µM
effect on growth of Par2 knockout keratinocytes ([4]; 100 and 200 µM): growth inhibitory effects
IC50 ([4]; Par2 knockout keratinocytes): 25.7 µM
effect on growth of Par2 knockout keratinocytes ([4]; concentrations up to 26 µM): did not cause significant growth inhibition
